We go through one compound from publication PMC3574224, “Na^+ Regulation in the Malaria Parasite Plasmodiumfalciparum Involves the Cation ATPase PfATP4 and Is a Target of the Spiroindolone Antimalarials” (Cell Host & Microbe, 2013).

One assay concerns P. falciparum Dd2 parent. As to the kind of experiment: Parasite proliferation, [^3H]hypoxanthine incorporation, Dd2 parent. Type of assay: cell-based. Particulars: Plasmodium falciparum, DD2, read-out: IC50 for inhibition of parasite proliferation by NITD246. The method, then:
(§1) Parasite growth assays were performed in 96-well plates over 48 hr (commencing at the ring stage) using a standard [^3H]hypoxanthine incorporation assay ([Desjardins et al., 1979]).
(§2) Dose-response curves were obtained using the expression y = y^min + y^max/(1 + [C/IC50]^b), where y is the parameter being measured (parasite proliferation, Na^+ influx, or ATPase activity), y^min is the minimum value of y, y^max is the maximum value of y, C is the concentration of the moiety that was varied in the experiment, IC50 is the concentration at which y was reduced to 50% of y^max, and b is a fitted constant.

The test system of assay [1] is P. falciparum NITD609-R^Dd2 clone #2 (mutant PfATP4). The assay can be described thus: Parasite proliferation, [^3H]hypoxanthine incorporation, NITD609-R^Dd2 clone #2. The class given is cell-based. Particulars: Plasmodium falciparum, mean ± SEM (n), read-out: IC50 for inhibition of parasite proliferation by NITD246. The protocol: as §1, §2
Assay [2] has as its target T1, membrane-associated ATPase activity, Dd2^attB CAM I398F/P990R (mutant PfATP4 transfectant) (Plasmodium falciparum, UniProt A0A143ZZK9, I398F/P990R).
T1 sequence (A0A143ZZK9 1-1264 I398F/P990R): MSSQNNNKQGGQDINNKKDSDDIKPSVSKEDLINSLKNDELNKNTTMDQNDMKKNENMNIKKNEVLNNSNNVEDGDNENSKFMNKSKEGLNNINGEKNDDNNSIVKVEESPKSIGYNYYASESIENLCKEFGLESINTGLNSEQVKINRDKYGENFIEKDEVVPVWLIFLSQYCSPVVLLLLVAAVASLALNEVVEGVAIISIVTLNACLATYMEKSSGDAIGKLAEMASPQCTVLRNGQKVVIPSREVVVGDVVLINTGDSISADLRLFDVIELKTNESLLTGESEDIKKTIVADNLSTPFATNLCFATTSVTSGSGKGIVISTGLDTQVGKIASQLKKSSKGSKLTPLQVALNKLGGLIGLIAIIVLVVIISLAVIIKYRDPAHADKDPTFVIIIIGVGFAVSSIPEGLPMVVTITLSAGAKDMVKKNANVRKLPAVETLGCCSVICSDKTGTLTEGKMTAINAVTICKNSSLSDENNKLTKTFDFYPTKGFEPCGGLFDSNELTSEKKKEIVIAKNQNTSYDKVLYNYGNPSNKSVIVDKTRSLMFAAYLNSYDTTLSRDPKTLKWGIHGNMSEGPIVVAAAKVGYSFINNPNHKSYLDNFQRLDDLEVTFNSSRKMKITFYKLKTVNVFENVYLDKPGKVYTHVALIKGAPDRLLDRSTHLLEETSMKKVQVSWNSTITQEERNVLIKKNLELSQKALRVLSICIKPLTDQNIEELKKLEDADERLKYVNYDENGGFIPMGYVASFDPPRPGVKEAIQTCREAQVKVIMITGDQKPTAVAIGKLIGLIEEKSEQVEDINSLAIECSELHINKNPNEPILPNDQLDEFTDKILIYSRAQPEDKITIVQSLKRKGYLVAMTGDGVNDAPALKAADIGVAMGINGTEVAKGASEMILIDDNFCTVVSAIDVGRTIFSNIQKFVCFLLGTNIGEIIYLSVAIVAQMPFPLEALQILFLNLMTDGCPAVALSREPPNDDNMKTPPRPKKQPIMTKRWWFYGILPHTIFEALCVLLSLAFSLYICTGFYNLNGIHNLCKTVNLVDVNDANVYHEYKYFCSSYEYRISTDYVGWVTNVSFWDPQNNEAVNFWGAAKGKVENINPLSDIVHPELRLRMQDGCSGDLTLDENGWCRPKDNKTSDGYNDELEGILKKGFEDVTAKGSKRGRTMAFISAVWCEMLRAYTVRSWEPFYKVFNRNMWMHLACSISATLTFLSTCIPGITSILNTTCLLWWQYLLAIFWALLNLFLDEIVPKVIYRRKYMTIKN
As to the kind of experiment: Membrane-associated ATPase activity, Dd2^attB CAM I398F/P990R. Type of assay: biochemical. As to conditions: concentration causing Pi production rate to decrease by half the maximal amount, read-out: IC50 for disruption of ATPase activity by NITD246. The method, then: For the preparation of uninfected erythrocyte membranes, packed uninfected erythrocytes were lysed by incubation for 5 min in ice-cold PBS containing 0.1% (w/v) saponin together with 1/500 Protease Inhibitor Cocktail Set III (Calbiochem). The erythrocyte ghosts were pelleted by centrifugation (12,000 × g, 10 min) and washed three times in ice-cold water (12,000 × g, 10 min) immediately prior to their use in the ATPase assay. To prepare membranes from parasitised erythrocytes, saponin-isolated parasites were lysed by suspension in ice-cold water (containing 1/500 Protease Inhibitor Cocktail Set III) then washed three times in ice-cold water (12,000 × g, 10 min) before their immediate use in the ATPase assay. The ATPase activity of membrane preparations from uninfected erythrocytes and saponin-isolated parasites was estimated from the rate of hydrolysis of ATP and measured using the PiColorLock Gold Phosphate (Pi) Detection System (Innova Biosciences). Briefly, membrane preparations from 1–3 × 10^8 cells were suspended in reaction buffer (100 mM of either NaCl or choline chloride, 50 mM Tris-HCl, 20 mM KCl, and 2 mM MgCl2) at 37°C. The ATPase reaction was initiated by the addition of 0.25 mM Na2ATP. Note that it was necessary to use the Na^+ salt of ATP, rather than the K^+ and Mg^2+ salts, as the latter both contain residual Pi that saturated the Pi detection system. […]

In the case of `C[C@H]1Cc2c([nH]c3cc(F)c(F)cc23)[C@@]2(N1)C(=O)Nc1ccc(Cl)cc12` [NITD246], the IC50 stood at 0.08 ± 0.01 nM in the assay on P. falciparum Dd2 parent, 0.89 ± 0.12 nM in assay [1] and 0.17 ± 0.12 nM in assay [2].
